Test results: ChEMBL document CHEMBL1649094, “First Selective CYP11B1 Inhibitors for the Treatment of Cortisol-Dependent Diseases” (ACS Med Chem Lett, 2011); call rule not given here

What was measured:
[1] = target: T1, Cytochrome P450 11B2, mitochondrial (Homo sapiens, UniProt P19099); assay: Inhibition of human CYP11B2 expressed in hamster V79MZ cells using 11-deoxycorticosterone substrate; type: cell-based
T1 sequence (P19099 whole entry): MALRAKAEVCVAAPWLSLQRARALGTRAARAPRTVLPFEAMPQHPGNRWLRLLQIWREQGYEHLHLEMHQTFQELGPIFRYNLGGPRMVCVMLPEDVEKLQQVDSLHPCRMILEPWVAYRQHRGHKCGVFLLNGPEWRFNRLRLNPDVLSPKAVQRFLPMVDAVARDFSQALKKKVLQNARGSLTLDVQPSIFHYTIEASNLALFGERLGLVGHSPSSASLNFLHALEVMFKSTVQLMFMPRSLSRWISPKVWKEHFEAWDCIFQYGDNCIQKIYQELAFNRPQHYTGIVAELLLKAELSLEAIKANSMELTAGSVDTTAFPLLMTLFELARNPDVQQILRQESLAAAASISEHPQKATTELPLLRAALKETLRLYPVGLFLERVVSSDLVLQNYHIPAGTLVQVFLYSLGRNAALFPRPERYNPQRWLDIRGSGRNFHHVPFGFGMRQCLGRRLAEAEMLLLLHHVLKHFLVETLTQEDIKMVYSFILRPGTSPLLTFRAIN

[2] = target: T2, Steroid 17-alpha-hydroxylase/17,20 lyase (Homo sapiens, UniProt P05093); assay: Inhibition of human recombinant CYP17 expressed in Escherichia coli at 2 uM using progesterone substrate; conditions: 2 µM
T2 sequence (P05093 whole entry): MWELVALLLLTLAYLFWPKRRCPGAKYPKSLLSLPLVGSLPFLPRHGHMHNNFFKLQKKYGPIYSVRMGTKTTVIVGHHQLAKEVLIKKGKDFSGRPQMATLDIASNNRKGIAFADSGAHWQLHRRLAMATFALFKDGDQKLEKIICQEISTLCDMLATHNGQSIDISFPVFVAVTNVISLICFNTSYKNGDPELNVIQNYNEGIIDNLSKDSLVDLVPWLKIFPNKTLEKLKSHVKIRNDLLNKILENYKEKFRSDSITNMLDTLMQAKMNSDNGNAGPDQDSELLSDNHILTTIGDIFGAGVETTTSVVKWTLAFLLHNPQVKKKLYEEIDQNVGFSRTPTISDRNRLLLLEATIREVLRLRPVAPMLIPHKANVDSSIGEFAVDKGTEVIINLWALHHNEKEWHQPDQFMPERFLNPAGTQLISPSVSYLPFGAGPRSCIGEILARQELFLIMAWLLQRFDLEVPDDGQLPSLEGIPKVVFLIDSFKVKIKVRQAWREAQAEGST

[3] = organism: Homo sapiens; assay: Selectivity index, ratio of IC50 for human CYP11B2 to IC50 for human CYP11B1
[4] = target: T3, Cytochrome P450 11B1, mitochondrial (Homo sapiens, UniProt P15538); assay: Inhibition of human CYP11B1 expressed in hamster V79MZ cells using 11-deoxycorticosterone substrate; type: cell-based
T3 sequence (P15538 whole entry): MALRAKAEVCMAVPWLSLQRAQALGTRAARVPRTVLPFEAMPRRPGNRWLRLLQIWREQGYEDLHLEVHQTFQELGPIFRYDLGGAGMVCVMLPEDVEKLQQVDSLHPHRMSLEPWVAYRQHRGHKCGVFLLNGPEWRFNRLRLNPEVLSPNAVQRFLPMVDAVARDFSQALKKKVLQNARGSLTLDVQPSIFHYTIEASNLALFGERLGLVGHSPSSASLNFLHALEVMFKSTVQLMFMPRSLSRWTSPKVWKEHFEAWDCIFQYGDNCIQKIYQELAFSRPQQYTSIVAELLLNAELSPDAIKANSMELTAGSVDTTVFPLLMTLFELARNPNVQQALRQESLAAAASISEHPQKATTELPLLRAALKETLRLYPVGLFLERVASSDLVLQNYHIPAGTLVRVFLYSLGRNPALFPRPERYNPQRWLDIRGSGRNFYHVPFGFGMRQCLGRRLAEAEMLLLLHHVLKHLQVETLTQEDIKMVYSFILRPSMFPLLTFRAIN

[5] = target: T4, Aromatase (Homo sapiens, UniProt P11511); assay: Inhibition of human placental microsomes CYP19 at 500 nM using androstenedione substrate; conditions: 0.5 µM
T4 sequence (P11511 whole entry): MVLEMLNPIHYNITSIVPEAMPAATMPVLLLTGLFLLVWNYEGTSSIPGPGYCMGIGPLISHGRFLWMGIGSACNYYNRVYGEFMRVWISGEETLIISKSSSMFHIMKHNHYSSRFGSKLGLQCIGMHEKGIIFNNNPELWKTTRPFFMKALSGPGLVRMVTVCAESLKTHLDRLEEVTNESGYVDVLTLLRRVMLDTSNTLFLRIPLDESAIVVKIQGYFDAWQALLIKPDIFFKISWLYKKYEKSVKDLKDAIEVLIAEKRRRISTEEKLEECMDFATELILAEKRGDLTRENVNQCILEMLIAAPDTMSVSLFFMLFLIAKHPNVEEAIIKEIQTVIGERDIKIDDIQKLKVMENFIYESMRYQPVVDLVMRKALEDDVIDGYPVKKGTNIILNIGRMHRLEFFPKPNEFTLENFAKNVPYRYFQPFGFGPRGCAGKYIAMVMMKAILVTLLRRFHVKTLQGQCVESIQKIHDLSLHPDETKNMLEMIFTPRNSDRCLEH

## Clc1ccc(Cn2ccnc2)cc1
[1]
  IC50: 46 nM
[2]
  inhibition (INH): Not Active
[3]
  Ratio IC50: 0.3
[4]
  IC50: 140 nM
[5]
  inhibition (INH): Not Active

## c1ccc(-c2ccc(Cn3cnc4ccccc43)cc2)cc1
[1]
  IC50: 1900 nM
[2]
  inhibition (INH): Not Active
[3]
  Ratio IC50: 10
[4]
  IC50: 197 nM
[5]
  inhibition (INH): Not Active

## Cc1ccccc1Cn1cnc2ccccc21
[1]
  IC50: 262 nM
[2]
  inhibition (INH): Not Active
[3]
  Ratio IC50: 0.3
[4]
  IC50: 779 nM
[5]
  inhibition (INH): Not Active

## Clc1ccc(Cn2cnc3ccccc32)cc1
[1]
  IC50: 107 nM
[2]
  inhibition (INH): Not Active
[3]
  Ratio IC50: 0.2
[4]
  IC50: 635 nM
[5]
  inhibition (INH): Not Active

## Cc1c(C)c(C)c(Cn2cnc3ccccc32)c(C)c1C
[1]
  IC50: > 1000 nM
[2]
  inhibition (INH): Not Active
[4]
  IC50: > 1000 nM
[5]
  inhibition (INH): Not Active

## Cc1ccc(Cn2cnc3ccccc32)cc1
[1]
  IC50: 520 nM
[2]
  inhibition (INH): Not Active
[3]
  Ratio IC50: 1
[4]
  IC50: 500 nM
[5]
  inhibition (INH): Not Active

## Cc1cccc(Cn2cnc3ccccc32)c1
[1]
  IC50: 309 nM
[2]
  inhibition (INH): Not Active
[3]
  Ratio IC50: 1.6
[4]
  IC50: 194 nM
[5]
  inhibition (INH): Not Active

## c1ccc(Cn2ccnc2)cc1
[1]
  IC50: 456 nM
[2]
  inhibition (INH): Not Active
[3]
  Ratio IC50: 3.4
[4]
  IC50: 135 nM
[5]
  inhibition (INH): Not Active

## CCOC(=O)c1cncn1[C@H](C)c1ccccc1 [ETOMIDATE]
[1]
  IC50: 0.1 nM
[2]
  inhibition (INH): Not Active
[3]
  Ratio IC50: 0.5
[5]
  inhibition (INH): Not Active

## c1ccc(-c2ccccc2Cn2cnc3ccccc32)cc1
[1]
  IC50: > 1000 nM
[2]
  inhibition (INH): Not Active
[4]
  IC50: > 1000 nM
[5]
  inhibition (INH): Not Active

## c1ccc(C(c2ccccc2)(c2ccccc2)n2cnc3ccccc32)cc1
[1]
  IC50: > 1000 nM
[2]
  inhibition (INH): Not Active
[4]
  IC50: > 1000 nM
[5]
  inhibition (INH): Not Active

## c1ccc(C(CCn2cnc3ccccc32)(c2ccccc2)c2ccccc2)cc1
[1]
  IC50: > 1000 nM
[2]
  inhibition (INH): Not Active
[4]
  IC50: > 1000 nM
[5]
  inhibition (INH): Not Active

## Cc1cc(C)cc(Cn2cnc3ccccc32)c1
[1]
  IC50: 632 nM
[2]
  inhibition (INH): Not Active
[3]
  Ratio IC50: 3.4
[4]
  IC50: 188 nM
[5]
  inhibition (INH): Not Active

## Cc1ccc(Cn2ccnc2)cc1
[1]
  IC50: 320 nM
[2]
  inhibition (INH): Not Active
[3]
  Ratio IC50: 1.2
[4]
  IC50: 258 nM
[5]
  inhibition (INH): Not Active

## Cc1cc(C)c(Cn2ccnc2)c(C)c1
[1]
  IC50: 30 nM
[2]
  inhibition (INH): Not Active
[3]
  Ratio IC50: 1.3
[4]
  IC50: 24 nM
[5]
  inhibition (INH): Not Active

## c1ccc(-c2cccc(Cn3cnc4ccccc43)c2)cc1
[1]
  IC50: 2230 nM
[2]
  inhibition (INH): Not Active
[3]
  Ratio IC50: 6
[4]
  IC50: 369 nM
[5]
  inhibition (INH): Not Active

## Cc1cc(C)c(Cn2cnc3ccccc32)c(C)c1
[1]
  IC50: > 1000 nM
[2]
  inhibition (INH): Not Active
[4]
  IC50: > 1000 nM
[5]
  inhibition (INH): Not Active

## c1ccc(Cn2cnc3ccccc32)cc1
[1]
  IC50: 865 nM
[2]
  inhibition (INH): Not Active
[3]
  Ratio IC50: 3.5
[4]
  IC50: 246 nM
[5]
  inhibition (INH): Not Active

## c1ccc(-c2cc(Cn3cnc4ccccc43)cc(-c3ccccc3)c2)cc1
[1]
  IC50: > 1000 nM
[2]
  inhibition (INH): Not Active
[4]
  IC50: > 1000 nM
[5]
  inhibition (INH): Not Active

## CC(C)(C(=O)c1cccnc1)c1cccnc1 [METYRAPONE]
[2]
  inhibition (INH): Not Active
[5]
  inhibition (INH): Not Active

## c1ccc(C(Cn2cnc3ccccc32)(c2ccccc2)c2ccccc2)cc1
[1]
  IC50: > 1000 nM
[2]
  inhibition (INH): Not Active
[4]
  IC50: > 1000 nM
[5]
  inhibition (INH): Not Active
